For 23 compounds, IC50 results are on record in patent US20260184712A1, “Heterocyclic Compounds as ENT Inhibitors and Compounds for Use in the Treatment of Cancers” (iTeos Belgium SA, priority 2022, published 2026).

The target in this assay is T1, human ENT1 (Homo sapiens, UniProt Q99808).
T1 construct: JAR cells expressing ENT1 were purchased from ATCC; host or cells: JAR cells
T1 sequence (Q99808 1-456): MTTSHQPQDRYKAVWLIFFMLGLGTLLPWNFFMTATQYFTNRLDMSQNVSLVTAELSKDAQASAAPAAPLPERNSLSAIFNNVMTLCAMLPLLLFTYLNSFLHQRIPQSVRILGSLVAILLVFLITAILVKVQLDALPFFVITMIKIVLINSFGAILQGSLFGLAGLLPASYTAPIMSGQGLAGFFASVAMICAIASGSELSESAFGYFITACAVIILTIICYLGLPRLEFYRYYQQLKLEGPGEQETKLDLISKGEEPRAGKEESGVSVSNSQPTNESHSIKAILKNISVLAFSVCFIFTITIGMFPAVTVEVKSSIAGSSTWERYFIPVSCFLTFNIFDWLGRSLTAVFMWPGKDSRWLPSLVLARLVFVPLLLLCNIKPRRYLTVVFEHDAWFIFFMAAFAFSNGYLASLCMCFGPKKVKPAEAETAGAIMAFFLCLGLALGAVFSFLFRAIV
The assay is described as follows: ENT1 binding assay (competition with Sahenta-DY647 on JAR cells). The conditions noted are these: competition with SAHENTA-DY647 binding; IC50 categorized; read-out: Binding Assay IC50. The protocol:
Compounds of the present disclosure were assayed to show ability to bind to human ENT1. The assay is a competition between a compound of interest and Sahenta-DY647, an ENT1 inhibitor that emits fluorescence (Ex=630 nm, Em=670 nm). By measuring the fluorescence at the end of the assay, one can assess the binding potency of the compounds tested. The compounds of the present disclosure were tested and compared to known ENT inhibitors, dilazep and NBMPR:
JAR cells expressing ENT1 were purchased from ATCC® (HTB-144TM). Cells were cultured in RPMI 1640 medium (LONZA®, #BE12-702F/U1) supplemented with 10% FBS (GIBCO®, #10270-106), 10 mM Hepes (LONZA®, #BE17-737E), 1 mM Sodium Pyruvate (LONZA®, #BE13-115E), and 2% Penicillin/Streptomycin (LONZA®, #DE17-603E) at 37° C. and 5% CO2.
The assay was conducted with the following buffer on the day of the assay: HBSS (LONZA®, #LO-527F) supplemented with 10 mM Hepes (LONZA®, #BE17-737E) and 0.1% BSA (Miltenyi®, #130-091-376).
JAR cells were resuspended in the described buffer. The compounds of interest and Sahenta-DY647 were diluted 200× with the described buffer.
A total of 50,000 cells were pre-incubated for 30 min at 4° C. with the compounds of the present disclosure before adding the corresponding amount of Sahenta-DY647 (100 nM) to the minimal concentration at Bmax and incubating for an additional 30 min at 4° C. The total volume of the reaction was 100 μL (50 μL of cells, 25 μL of the compounds of the present disclosure, and 25 μL of Sahenta-DY647) in a U-bottom 96 well plate (Greiner®, #650-180). The plates were washed 2× by centrifugation (4 min, 400 rcf at 4° C.) in the same buffer. Cells were re-suspended in 70 μL of the buffer and 50 μL was transferred to a Black 384 Optiplate (PerkinElmer®, #6007279). Fluorescence (Ex=630 nm, Em=670 nm) was acquired on a Spectramax i3x (Molecular Devices®).
Dose-response data from the compounds were analyzed with Graphpad Prism 9.1.1@software, using nonlinear regression applied to a sigmoidal dose-response model and the following equation:
Y=Bottom+(Top-Bottom)/(1+10^((LogIC50−X)*HillSlope)), with a shared bottom and top between the test reagent and dipyridamole.
Data from multiple experiments were compiled by taking the average pIC50 value for the reagent in question±the standard deviation (s.d.) and expressing it as an average IC50 value in nM.
The inhibitory effect of the test compound was expressed as a percentage of the inhibition of SAHENTA-DY647 binding.

As to `C[C@H]1O[C@@H](n2c(NCc3cnn(C)c3)nc3c(N4CCc5ccc([N+](=O)[O-])cc5C4)ncnc32)[C@H](O)[C@@H]1O` [Compound 138], the IC50 was less than 1 nM. On to `CC1OC(n2c(NC3CC(C)(O)C3)nc3c(N4CCc5ccc([N+](=O)[O-])cc5C4)ncnc32)C(O)C1O` (single isomer, unassigned) [Compound 141], for which the IC50 was less than 1 nM. As for `C[C@H]1O[C@@H](n2cnc3c(OCCc4ccc(OC(F)(F)F)nc4)ncnc32)[C@H](O)[C@@H]1O` [Compound 349], the concentration for half-maximal inhibition (IC50) was more than 500 nM. As for `C[C@H]1O[C@@H](n2cnc3c(OCc4ccc([N+](=O)[O-])cn4)ncnc32)[C@H](O)[C@@H]1O` [Compound 281], the figure is more than 500 nM; as for `CC1OC(n2c(NC3CC(C)(O)C3)nc3c(OCc4ccc([N+](=O)[O-])cc4)ncnc32)C(O)C1O` (single isomer, unassigned) [Compound 133], 1 to 20 nM; as for `C[C@H]1O[C@@H](n2cnc3c(C(=O)N(C)Cc4ccc([N+](=O)[O-])cc4)ncnc32)[C@H](O)[C@@H]1O` [Compound 406], more than 500 nM.

With `C[C@H]1O[C@@H](n2c(NCCN3CCN(C)CC3)nc3c(OCc4ccc([N+](=O)[O-])cc4)ncnc32)[C@H](O)[C@@H]1O` [Compound 33], the IC50 lay within 20 to 500 nM.

For the compound `C[C@H]1O[C@@H](n2cnc3c(OCCc4cnc(CF)nc4)ncnc32)[C@H](O)[C@@H]1O` [Compound 403], the 50% inhibitory concentration (IC50) is more than 500 nM. On to `C[C@H]1O[C@@H](n2c(N[C@H]3CC[C@@](C)(O)CC3)nc3c(N4CCc5ccc([N+](=O)[O-])cc5C4)ncnc32)[C@H](O)[C@@H]1O` [Compound 139], for which the IC50 was less than 1 nM. Then `C[C@H]1O[C@@H](n2cnc3c(C4=Cc5cc([N+](=O)[O-])ccc5CC4)ncnc32)[C@H](O)[C@@H]1O` [Compound 192], with 20 to 500 nM. As for `Cc1cc(COc2ncnc3c2nc(NC2CCCC2)n3[C@@H]2O[C@H](C)[C@@H](O)[C@H]2O)ccc1[N+](=O)[O-]` [Compound 86], the figure is less than 1 nM; as for `C[C@H]1O[C@@H](n2cnc3c(SCc4nc(-c5ccccc5Cl)no4)ncnc32)[C@H](O)[C@@H]1O` [Compound 310], more than 500 nM.

`Cc1cc(C)c(COc2ncnc3c2ncn3[C@@H]2O[C@H](C)[C@@H](O)[C@H]2O)c(C)c1` [Compound 340]: the IC50 was more than 500 nM. Regarding `C[C@H]1O[C@@H](n2cnc3c(NCc4ccc(OC5CCOCC5)cc4)ncnc32)[C@H](O)[C@@H]1O` [Compound 389], the IC50 is more than 500 nM.

For `C[C@H]1O[C@@H](n2cnc3c(SCc4ccc(C#N)cn4)ncnc32)[C@H](O)[C@@H]1O` [Compound 257], the IC50 is more than 500 nM. For the compound `O=[N+]([O-])c1ccc(COc2ncnc3c2ncn3[C@@H]2O[C@H](COCCN3CCCC3)[C@@H](O)[C@H]2O)cc1` [Compound 240], the IC50 is more than 500 nM. Then `C[C@H]1O[C@@H](n2cnc3c(OCc4ccc(F)cc4)ncnc32)[C@H](O)[C@@H]1O` [Compound 202], with 20 to 500 nM.

Regarding `C[C@H]1O[C@@H](n2cnc3c(NCc4ccc(NS(C)(=O)=O)cc4)ncnc32)[C@H](O)[C@@H]1O` [Compound 261], the IC50 was more than 500 nM. Then `CNc1nc2c(OCc3ccc([N+](=O)[O-])cc3)ncnc2n1[C@@H]1O[C@H](C)[C@@H](O)[C@H]1O` [Compound 19], with 20 to 500 nM.

Turning to `C[C@H]1O[C@@H](n2cnc3c(OCCc4ccc(C#N)cn4)ncnc32)[C@H](O)[C@@H]1O` [Compound 402], the IC50 was more than 500 nM. On to `C[C@H]1O[C@@H](n2cnc3c(C(=O)NCc4ccc(OC(F)(F)F)cc4)ncnc32)[C@H](O)[C@@H]1O` [Compound 295], for which the IC50 is more than 500 nM. For the compound `C[C@H]1O[C@@H](n2c(N(C)C3CCCC3)nc3c(OCc4ccc([N+](=O)[O-])cc4)ncnc32)[C@H](O)[C@@H]1O` [Compound 1], the IC50 was more than 500 nM. Consider `C[C@H]1O[C@@H](n2cnc3c(N4CCN(c5ccc([N+](=O)[O-])cc5)CC4)ncnc32)[C@H](O)[C@@H]1O` [Compound 299], for which the IC50 is more than 500 nM.
